biological target: recombinant human integrin αvβ6 (Homo sapiens (Human), UniProt P06756+P18564); experiment: Solid Phase Integrin αvβ6 Binding Assay; conditions: inhibition of recombinant TGFβ1 LAP binding to coated integrin; IC50 given as range
Protocol: Microplates were coated with recombinant human integrin αvβ6 (2 ug/ml) in PBS (100 ul/well 25° C. overnight). The coating solution was removed, washed with wash buffer (0.05% Tween 20; 0.5 mM MnCl2; in 1×TBS). Plate was blocked with 200 ul/well of Block Buffer (1% BSA; 5% sucrose; 0.5 mM MnCl2; in 1×TBS) at 37° C. for 2 h. Dilutions of testing compounds and recombinant TGFβ1 LAP (0.67 ug/ml) in binding buffer (0.05% BSA; 2.5% sucrose; 0.5 mM MnCl2; in 1×TBS) were added. The plate was incubated for 2 hours at 25° C., washed, and incubated for 1 hour with Biotin-Anti-hLAP. Bound antibody was detected by peroxidase-conjugated streptavidin. The IC50 values for testing compounds were calculated by a four-parameter logistic regression.

Sequence of recombinant human integrin αvβ6 (P06756 31-992): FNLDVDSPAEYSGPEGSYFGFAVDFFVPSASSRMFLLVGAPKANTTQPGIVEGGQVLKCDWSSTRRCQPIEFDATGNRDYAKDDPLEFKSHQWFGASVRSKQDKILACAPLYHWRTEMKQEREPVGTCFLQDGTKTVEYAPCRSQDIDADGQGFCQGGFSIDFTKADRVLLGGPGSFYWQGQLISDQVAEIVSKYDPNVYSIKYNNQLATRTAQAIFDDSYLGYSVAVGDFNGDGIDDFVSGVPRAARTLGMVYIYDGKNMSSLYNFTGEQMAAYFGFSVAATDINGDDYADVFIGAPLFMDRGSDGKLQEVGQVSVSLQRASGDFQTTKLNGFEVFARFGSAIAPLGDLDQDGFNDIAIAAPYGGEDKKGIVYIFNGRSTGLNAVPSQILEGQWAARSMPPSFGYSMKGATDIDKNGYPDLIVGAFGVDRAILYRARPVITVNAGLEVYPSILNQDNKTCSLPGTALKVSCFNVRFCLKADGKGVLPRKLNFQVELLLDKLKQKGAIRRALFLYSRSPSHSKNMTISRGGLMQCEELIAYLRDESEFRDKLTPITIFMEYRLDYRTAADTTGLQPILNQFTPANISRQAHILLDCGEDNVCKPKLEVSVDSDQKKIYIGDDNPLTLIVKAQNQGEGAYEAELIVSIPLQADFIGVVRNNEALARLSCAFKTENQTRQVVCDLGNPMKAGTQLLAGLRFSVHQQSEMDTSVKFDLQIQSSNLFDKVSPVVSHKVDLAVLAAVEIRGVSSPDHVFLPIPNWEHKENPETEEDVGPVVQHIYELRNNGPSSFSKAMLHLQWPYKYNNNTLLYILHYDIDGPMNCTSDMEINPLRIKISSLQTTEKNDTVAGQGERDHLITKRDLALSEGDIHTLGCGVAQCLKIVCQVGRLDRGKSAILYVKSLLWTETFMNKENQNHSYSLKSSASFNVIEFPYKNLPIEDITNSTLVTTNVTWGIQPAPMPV
Sequence of recombinant human integrin αvβ6 (P18564 22-707): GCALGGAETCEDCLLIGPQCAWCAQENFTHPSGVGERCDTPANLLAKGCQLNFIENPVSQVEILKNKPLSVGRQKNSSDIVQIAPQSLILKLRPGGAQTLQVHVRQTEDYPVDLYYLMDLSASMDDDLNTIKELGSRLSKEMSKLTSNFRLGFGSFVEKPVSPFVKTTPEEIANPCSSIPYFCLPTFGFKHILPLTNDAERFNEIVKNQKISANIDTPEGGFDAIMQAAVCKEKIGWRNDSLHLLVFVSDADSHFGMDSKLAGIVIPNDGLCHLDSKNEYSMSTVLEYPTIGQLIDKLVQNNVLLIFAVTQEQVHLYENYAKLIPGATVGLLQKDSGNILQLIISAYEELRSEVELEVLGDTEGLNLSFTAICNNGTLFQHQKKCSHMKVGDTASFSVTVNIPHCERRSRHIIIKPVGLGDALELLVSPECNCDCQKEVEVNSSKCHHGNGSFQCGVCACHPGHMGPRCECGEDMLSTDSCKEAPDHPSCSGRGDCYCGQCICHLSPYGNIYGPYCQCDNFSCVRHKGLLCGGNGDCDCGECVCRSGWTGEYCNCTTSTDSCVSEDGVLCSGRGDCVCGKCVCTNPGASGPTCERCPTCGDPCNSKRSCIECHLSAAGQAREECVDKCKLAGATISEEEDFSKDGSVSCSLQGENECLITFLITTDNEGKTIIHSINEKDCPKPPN

SMILES | IC50
O=C(N[C@@H](CCN1CCC(NCc2ccc3c(n2)NCCC3)CC1)C(=O)O)C1CCC(F)(F)CC1 [Compound 34] | > 1000 nM
Cc1cc(C)n(-c2cccc(C(=O)N[C@@H](CCN3CC(CCc4ccc5c(n4)NCCC5)CC(F)(F)C3)C(=O)O)c2)n1 (stereo partly shown) [Compound 42] | 250 to 4000 nM
Cn1ncc2ccc(C(=O)N[C@@H](CCN3CCC[C@@](F)(CCc4ccc5c(n4)NCCC5)C3)C(=O)O)cc21 [Compound 106] | 50 nM
NCCCc1ccc(CCC2CC3CCC2N3CC[C@H](NC(=O)c2cc(F)cc(C(F)(F)F)c2)C(=O)O)nc1 (stereo partly shown) [Compound 141] | < 50 nM

Now from value to compound:

IC50 | SMILES
50 nM | O=C(N[C@@H](CCN1CCC[C@@](F)(CCc2ccc3c(n2)NCCC3)C1)C(=O)O)C1CCC(F)(F)CC1 [Compound 107]
250 to 1000 nM | CC(C)(O)CN1CCCC1C(=O)N[C@@H](CCN1CC(OCCc2ccc3c(n2)NCCC3)C1)C(=O)O (stereo partly shown) [Compound 134]
> 1000 nM | O=C(O)[C@H](CCN1CC(CCc2ccc3c(n2)NCCC3)C1)NC(=O)[C@@H]1CCCN1Cc1ccccc1 [Compound 143]
